Earlier results, collected in patent publication US20070081962A1, “Novel delivery of immune response modifiers for removal of chronic tattoos” (priority 2005, published 2007).

Test system: freshly applied tattoos
Details: guinea pigs tattooed with commonly used tattoo inks; topical 5% cream, initiated within six hours of the tattoo application and continued for seven days

In the case of `CC(C)Cn1cnc2c(N)nc3ccccc3c21` [irmiquimod, 1-(2-methylpropyl)-1H-imidazo[4,5-c]quinolin-4-amine], the “removal of freshly applied tattoos” value is listed as “effective for removing freshly applied tattoos”.
